Tests used:
[1] = tested on: C. albicans group I intron precursor; assay: Inhibition of C. albicans group I intron precursor self-splicing; type: biochemical, Candida albicans; conditions: read-out: IC50 for inhibition of precursor self-splicing; 2 mM Mg2+ (H2Mg buffer: 50 mM Na HEPES pH 7.5, 135 mM KCl), 1 mM nucleotide bulk yeast tRNA competitor, 100 µM GMP; four parameter logistic fit
Solubility in water = type: physicochemical

| Structure (SMILES) | IC50 [1] [µM] | solubility in water (Solubility in water) |
| --- | --- | --- |
| c1ccc(Cn2cc(CN(Cc3cn(Cc4ccccc4)nn3)Cc3cn(Cc4ccccc4)nn3)nn2)cc1 [TBTA, tris(benzyltriazolylmethyl)amine] | > 5000 | – |
| NCCc1c[nH]c2ccccc12 [Compound 4, tryptamine] | – | not soluble in water |
| N=C(N)c1ccc(OCCCCCOc2ccc(C(=N)N)cc2)cc1 [Pentamidine, pentamidine] | 200 ± 35 | – |
